The compounds below were run on blood platelet activating factor (PAF) (assay: Inhibition of PAF-induced platelet aggregation in platelet-rich plasma (aggregometer)). Settings: rabbit platelet-rich plasma, 37° C., stirring; test substance added 2 minutes before PAF (4 nM, sub-maximum dosage); read-out: IC50 (concentration of the test substance which reduces to a half the aggregation of the blood platelets brought about by PAF).
Type: cell-based
Protocol: The aggregation of the blood platelets was measured with the aid of an aggregometer at 37° C. while stirring. […] The IC50 value (in μM) given in the following Table corresponds to that concentration of the test substance which reduces to a half the aggregation of the blood platelets brought about by PAF.

Q: Which IC50 does the source give for `CCCCCCCCCCCCCCCCCCOC[C@H](COC(=O)CCC[n+]1ccccc1)OC(=O)NC` [Example 1, 1-[3-[[(R)-2-[(methylcarbamoyl)oxy]-3-(octadecyloxy)propoxy]carbonyl]-propyl]pyridinium chloride] here?
A: 1600 nM

Q: Which IC50 does the source give for `CCCCCCCCCCCCCCCCCCOC[C@H](COC(=O)OCC[n+]1ccccc1)OC(=O)OC` [Example 10, 1-[2-[[(R)-2-[(methoxycarbonyl)oxy]-3-(octadecyloxy)propoxy]carbonyl]oxy]ethyl]pyridinium bromide] here?
A: 3000 nM

Q: With `CCCCCCCCCCCCCCCCCCNC(=O)OCC(COC(=O)CCC[n+]1ccccc1)OC(=O)OC` (racemic) [Example 21a, 1-[3-[[(RS)-2-[(methoxycarbonyl)oxy]-3-[(octadecylcarbamoyl)oxy]propoxy]carbonyl]propyl]pyridinium chloride] as the compound, how does the IC50 read?
A: 150 nM

Q: How did the IC50 turn out when `CCCCCCCCCCCCCCCCCCOC(=O)NCC(COC(=O)CCC[n+]1ccccc1)OC(=O)OC` (racemic) [Example 26, 1-[3-[[(RS)-2-[(methoxycarbonyl)oxy[-3-[1-(octadecyloxy)-formamido]propoxy]carbonyl]propyl]pyridinium chloride] was run?
A: 400 nM

Q: How did the IC50 turn out when `CCCCCCCCCCCCCCCCCCNC(=O)OC[C@@H](COC(=O)CCC[n+]1ccsc1)OC(=O)OC` [Example 21e, 3-[3-[[(R)-2-[(methoxycarbonyl)oxy]-3-[(octadecylcarbamoyl)oxy]propoxy]carbonyl]propyl]thiazolium iodide] was run?
A: 40 nM

Q: `CCCCCCCCCCCCCCCCCCOC[C@H](COC(=O)OCC[n+]1ccsc1)OC(=O)OC` [Example 12, 3-[2-[[[(R)-2-[(methoxycarbonyl)oxy]-3-(octadecyloxy)propoxy]carbonyl]oxy]ethyl]thiazolium bromide] was tested. Which IC50 did it give?
A: 2000 nM

Q: With `CCCCCCCCCCCCCCCCCCNC(=O)OC[C@H](COC(=O)CCC[n+]1ccsc1)OC(=O)OC` [Example 21f, 3-[3-[[(S)-2-[(methoxycarbonyl)oxy]-3-[(octadecylcarbamoyl)oxy]propoxy]carbonyl]propyl]thiazolium iodide] as the compound, how does the IC50 read?
A: 60 nM

Q: `CCCCCCCCCCCCCCCCCCOCC(COC(=O)CC[n+]1ccccc1)NC(=O)OC` (racemic) [Example 15] was tested. Which IC50 did it give?
A: 3000 nM

Q: Which IC50 does the source give for `CCCCCCCCCCCCCCCCCCNC(=O)OCC(COC(=O)OCC[n+]1ccccc1)OC` (racemic) [Example 7b, 1-[2-[[[(RS)-2-methoxy-3-[(octadecylcarbamoyl)oxy]propoxy]carbonyl]oxy]ethyl]pyridinium bromide] here?
A: 1600 nM

Q: Which IC50 does the source give for `CCCCCCCCCCCCCCCCCCNC(=O)OC[C@H](COC(=O)OCC[n+]1ccccc1)OC(=O)OC` [Example 11, 1-[2-[[[(R)-2-[(methoxycarbonyl)oxy]-3-(octadecylcarbamoyl)oxy]propoxy]carbonyl]oxy]ethyl]pyridinium bromide] here?
A: 600 nM

Q: `CCCCCCCCCCCCCCCCCCNC(=O)OCC(COC(=O)NCC[n+]1ccccc1)OC` (racemic) [Example 7a, 1-[2-[1-[(RS)-2-methoxy-3-(octadecylcarbamoyloxy)propoxy]formamido]ethyl]pyridinium chloride] was tested. Which IC50 did it give?
A: 2000 nM

Q: For `CCCCCCCCCCCCCCCCCCNC(=O)OCC(COC(=O)CCC[n+]1ccsc1)OC` (racemic) [Example 20b, 3-[3-[[(RS)-2-methoxy-3-[(octadecylcarbamoyl)oxy]propoxy]carbonyl]propyl]thiazolium chloride], which IC50 is on record?
A: 250 nM

Q: `CCCCCCCCCCCCCCCCCCNC(=O)OCC(COC(=O)CCC[n+]1ccsc1)NC(=O)OC` (racemic) [Example 24, 1-[3-[[(RS)-2-(1-methoxyformamido)-3-(octadecylcarbamoyloxy)propoxy]carbonyl]propyl]thiazolium chloride] was tested. Which IC50 did it give?
A: 150 nM

Q: With `CCCCCCCCCCCCCCCCCCOC[C@H](COC(=O)OCC[n+]1ccccc1)OC(=O)NC` [Example 3, 1-[2-[[[(R)-2-[(methylcarbamoyl)oxy]-3-(octadecyloxy)propoxy]carbonyl]oxy]ethyl]pyridinium bromide] as the compound, how does the IC50 read?
A: 3000 nM

Q: For `CCCCCCCCCCCCCCCCCCNC(=O)OC[C@@H](COC(=O)CCC[n+]1ccccc1)OC(=O)OC` [Example 21b, 1-[3-[[(R)-2-[(methoxycarbonyl)oxy]-3-[(octadecylcarbamoyl)oxy]propoxy]carbonyl]propyl]pyridinium chloride], which IC50 is on record?
A: 200 nM

Q: `CCCCCCCCCCCCCCCCCCNC(=O)OC[C@H](COC(=O)CCC[n+]1ccccc1)OC(=O)OC` [Example 21d, 1-[3-[[(S)-2-[(methoxycarbonyl)oxy]-3-[(octadecylcarbamoyl)oxy]propoxy]carbonyl]propyl]pyridinium iodide] was tested. Which IC50 did it give?
A: 200 nM

Q: Which IC50 does the source give for “1-[3-[[[(RS)-2-(1-methoxyformamido)-3-(octadecyloxy)propoxy]carbonyl]oxy]propyl]pyridinium chloride [Example 16]” here?
A: 1500 nM

Reference: patent US4731373A, “Glycerin derivatives and inhibition of blood PAF” (Hoffman-La Roche Inc., priority 1983, dated 1988)
